Test results taken from PubChem BioAssay AID2060893 (Molecular Pharmacology Branch, DTP, NCI, 2025).
pIC50: −log10 of the molar value.

Tested on: K86415-001-R-J1-PDC complex spheroids, viability
Assay: Anticancer human tumor K86415-001-R-J1-PDC patient-derived lung adenocarcinoma cell line growth inhibition [RAS]
Details: for pIC50: curve of first compound; for viability, T/C: stronger effect = lower value
How it was run: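 Multi-cell-type spheroids: tumor cells plus HUVEC endothelial cells and mesenchymal stem cells. RAS-pathway inhibitors were combined with targeted agents, each dosed in half-log steps down from clinical Cmax, or from 10 microM when Cmax was unknown.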

[1] = second compound 0.000949 µM, first compound 0.0316 µM
[2] = second compound 0.000949 µM, first compound 0.1 µM
[3] = second compound 0.000949 µM, first compound 0.316 µM
[4] = second compound 0.000949 µM, first compound 1 µM
[5] = second compound 0.000949 µM, first compound 3.16 µM
[6] = second compound 0.000949 µM, first compound 10 µM
[7] = second compound 0.003 µM, first compound 0.0316 µM
[8] = second compound 0.003 µM, first compound 0.1 µM
[9] = second compound 0.003 µM, first compound 0.316 µM
[10] = second compound 0.003 µM, first compound 1 µM
[11] = second compound 0.003 µM, first compound 3.16 µM
[12] = second compound 0.003 µM, first compound 10 µM
[13] = second compound 0.00949 µM, first compound 0.0316 µM
[14] = second compound 0.00949 µM, first compound 0.1 µM
[15] = second compound 0.00949 µM, first compound 0.316 µM
[16] = second compound 0.00949 µM, first compound 1 µM
[17] = second compound 0.00949 µM, first compound 3.16 µM
[18] = second compound 0.00949 µM, first compound 10 µM
[19] = second compound 0.03 µM, first compound 0.0316 µM
[20] = second compound 0.03 µM, first compound 0.1 µM
[21] = second compound 0.03 µM, first compound 0.316 µM
[22] = second compound 0.03 µM, first compound 1 µM
[23] = second compound 0.03 µM, first compound 3.16 µM
[24] = second compound 0.03 µM, first compound 10 µM
[25] = second compound 0.0949 µM, first compound 0.0316 µM
[26] = second compound 0.0949 µM, first compound 0.1 µM
[27] = second compound 0.0949 µM, first compound 0.316 µM
[28] = second compound 0.0949 µM, first compound 1 µM
[29] = second compound 0.0949 µM, first compound 3.16 µM
[30] = second compound 0.0949 µM, first compound 10 µM
[31] = second compound 0.3 µM, first compound 0.0316 µM
[32] = second compound 0.3 µM, first compound 0.1 µM
[33] = second compound 0.3 µM, first compound 0.316 µM
[34] = second compound 0.3 µM, first compound 1 µM
[35] = second compound 0.3 µM, first compound 3.16 µM
[36] = second compound 0.3 µM, first compound 10 µM
[37] = second compound 0.000949 µM, first compound 0.00316 µM
[38] = second compound 0.000949 µM, first compound 0.01 µM
[39] = second compound 0.003 µM, first compound 0.00316 µM
[40] = second compound 0.003 µM, first compound 0.01 µM
[41] = second compound 0.00949 µM, first compound 0.00316 µM
[42] = second compound 0.00949 µM, first compound 0.01 µM
[43] = second compound 0.03 µM, first compound 0.00316 µM
[44] = second compound 0.03 µM, first compound 0.01 µM
[45] = second compound 0.0949 µM, first compound 0.00316 µM
[46] = second compound 0.0949 µM, first compound 0.01 µM
[47] = second compound 0.3 µM, first compound 0.00316 µM
[48] = second compound 0.3 µM, first compound 0.01 µM
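Further: spheroids exposed to agents for seven days before readout.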

`CC(C)NCC(C(=O)N1CCN(c2ncnc3c2C(C)CC3O)CC1)c1ccc(Cl)cc1` (stereo not drawn) + CCn1c(-c2cccnc2C(C)OC)c2c3cc(ccc31)N1CCOC(CC(NC(=O)C(C(C)C)N(C)C(=O)C3(F)CCN(C(=O)C#CC(C)(C)N(C)C)CC3)C(=O)N3CCCC(N3)C(=O)OCC(C)(C)C2)C1 was tested, and the pIC50 (second compound 0.000949 µM) was over 7.50, the pIC50 (second compound 0.003 µM) was over 7.50 and the pIC50 (second compound 0.00949 µM) was over 7.50. For the same compound, the pIC50 (second compound 0.03 µM) was over 7.50, the pIC50 (second compound 0.0949 µM) was over 7.50 and the pIC50 (second compound 0.3 µM) was over 7.50. For the same compound, the viability, T/C [1] was 35.7%, the viability, T/C [2] was 32.2% and the viability, T/C [3] was 17.5%. For the same compound, the viability, T/C [4] was 23.3%, the viability, T/C [5] was 27.7% and the viability, T/C [6] was 2.82%. For the same compound, the viability, T/C [7] was 13.4%, the viability, T/C [8] was 10.9% and the viability, T/C [9] was 8.95%. It also gave a viability, T/C [10] of 8.63%, a viability, T/C [11] of 7.76% and a viability, T/C [12] of 2.54%. It also gave a viability, T/C [13] of 12.8%, a viability, T/C [14] of 9.52% and a viability, T/C [15] of 9.15%. For the same compound, the viability, T/C [16] was 9.63%, the viability, T/C [17] was 4.93% and the viability, T/C [18] was 3.21%. The viability, T/C [19] was 12.9%, the viability, T/C [20] was 10.5% and the viability, T/C [21] was 10.2%. It also gave a viability, T/C [22] of 8.95%, a viability, T/C [23] of 4.3% and a viability, T/C [24] of 3.21%. The viability, T/C [25] was 9.52%, the viability, T/C [26] was 9.03% and the viability, T/C [27] was 9.7%. It also gave a viability, T/C [28] of 10%, a viability, T/C [29] of 4.97% and a viability, T/C [30] of 2.94%. The viability, T/C [31] was 12.9%, the viability, T/C [32] was 12% and the viability, T/C [33] was 10.3%. For the same compound, the viability, T/C [34] was 6.44%, the viability, T/C [35] was 4.71% and the viability, T/C [36] was 2.26%.
For `CC(C)n1nc(-c2ccc3oc(N)nc3c2)c2c(N)ncnc21` + CCn1c(-c2cccnc2C(C)OC)c2c3cc(ccc31)N1CCOC(CC(NC(=O)C(C(C)C)N(C)C(=O)C3(F)CCN(C(=O)C#CC(C)(C)N(C)C)CC3)C(=O)N3CCCC(N3)C(=O)OCC(C)(C)C2)C1, the pIC50 (second compound 0.000949 µM) was over 9.50, the pIC50 (second compound 0.003 µM) was over 9.50 and the pIC50 (second compound 0.00949 µM) was over 9.50. The pIC50 (second compound 0.03 µM) was over 9.50, the pIC50 (second compound 0.0949 µM) was over 9.50 and the pIC50 (second compound 0.3 µM) was over 9.50. The viability, T/C (second compound 0.000949 µM, first compound 0.000316 µM) was 34%, the viability, T/C (second compound 0.000949 µM, first compound 0.001 µM) was 35.4% and the viability, T/C [37] was 23.2%. The viability, T/C [38] was 41.4%, the viability, T/C [1] was 24.4% and the viability, T/C [2] was 5.51%. For the same compound, the viability, T/C (second compound 0.003 µM, first compound 0.000316 µM) was 13%, the viability, T/C (second compound 0.003 µM, first compound 0.001 µM) was 12.1% and the viability, T/C [39] was 10.7%. For the same compound, the viability, T/C [40] was 14.7%, the viability, T/C [7] was 8.1% and the viability, T/C [8] was 3.6%. For the same compound, the viability, T/C (second compound 0.00949 µM, first compound 0.000316 µM) was 13.2%, the viability, T/C (second compound 0.00949 µM, first compound 0.001 µM) was 9.19% and the viability, T/C [41] was 10.9%. It also gave a viability, T/C [42] of 13.8%, a viability, T/C [13] of 7.68% and a viability, T/C [14] of 2.81%. It also gave a viability, T/C (second compound 0.03 µM, first compound 0.000316 µM) of 12.8%, a viability, T/C (second compound 0.03 µM, first compound 0.001 µM) of 10.7% and a viability, T/C [43] of 11.1%. It also gave a viability, T/C [44] of 12.4%, a viability, T/C [19] of 5.85% and a viability, T/C [20] of 3.42%. For the same compound, the viability, T/C (second compound 0.0949 µM, first compound 0.000316 µM) was 10.1%, the viability, T/C (second compound 0.0949 µM, first compound 0.001 µM) was 11% and the viability, T/C [45] was 10.1%. It also gave a viability, T/C [46] of 12.7%, a viability, T/C [25] of 4.18% and a viability, T/C [26] of 2.27%. The viability, T/C (second compound 0.3 µM, first compound 0.000316 µM) was 14.4%, the viability, T/C (second compound 0.3 µM, first compound 0.001 µM) was 11.3% and the viability, T/C [47] was 12.1%. It also gave a viability, T/C [48] of 7.79%, a viability, T/C [31] of 4.23% and a viability, T/C [32] of 2.06%.
Work on `CC(Nc1ccc2c(c1)OCCn1cc(N3C(=O)OCC3C(F)F)nc1-2)C(N)=O` (stereo not drawn) + CCn1c(-c2cccnc2C(C)OC)c2c3cc(ccc31)N1CCOC(CC(NC(=O)C(C(C)C)N(C)C(=O)C3(F)CCN(C(=O)C#CC(C)(C)N(C)C)CC3)C(=O)N3CCCC(N3)C(=O)OCC(C)(C)C2)C1 yielded a pIC50 (second compound 0.000949 µM) of over 7.50, a pIC50 (second compound 0.003 µM) of over 7.50 and a pIC50 (second compound 0.00949 µM) of over 7.50. The pIC50 (second compound 0.03 µM) was over 7.50, the pIC50 (second compound 0.0949 µM) was over 7.50 and the pIC50 (second compound 0.3 µM) was over 7.50. It also gave a viability, T/C [1] of 26.6%, a viability, T/C [2] of 24.9% and a viability, T/C [3] of 14.1%. The viability, T/C [4] was 24.3%, the viability, T/C [5] was 8.98% and the viability, T/C [6] was 1.64%. For the same compound, the viability, T/C [7] was 11.9%, the viability, T/C [8] was 8% and the viability, T/C [9] was 6.61%. For the same compound, the viability, T/C [10] was 4.14%, the viability, T/C [11] was 2.69% and the viability, T/C [12] was 0.95%. For the same compound, the viability, T/C [13] was 9.31%, the viability, T/C [14] was 8.26% and the viability, T/C [15] was 6.9%. It also gave a viability, T/C [16] of 3.65%, a viability, T/C [17] of 1.68% and a viability, T/C [18] of 1.1%. It also gave a viability, T/C [19] of 8.58%, a viability, T/C [20] of 7.61% and a viability, T/C [21] of 6.15%. It also gave a viability, T/C [22] of 2.63%, a viability, T/C [23] of 1.91% and a viability, T/C [24] of 1.86%. The viability, T/C [25] was 10.4%, the viability, T/C [26] was 8.62% and the viability, T/C [27] was 4.05%. It also gave a viability, T/C [28] of 3.24%, a viability, T/C [29] of 1.57% and a viability, T/C [30] of 1.22%. The viability, T/C [31] was 8.96%, the viability, T/C [32] was 6.86% and the viability, T/C [33] was 3.94%. It also gave a viability, T/C [34] of 2.09%, a viability, T/C [35] of 1.58% and a viability, T/C [36] of 1.59%.
`O=C(c1ccc(F)c(F)c1Nc1ccc(I)cc1F)N1CC(O)([C@@H]2CCCCN2)C1` + CCn1c(-c2cccnc2C(C)OC)c2c3cc(ccc31)N1CCOC(CC(NC(=O)C(C(C)C)N(C)C(=O)C3(F)CCN(C(=O)C#CC(C)(C)N(C)C)CC3)C(=O)N3CCCC(N3)C(=O)OCC(C)(C)C2)C1 was tested, and the pIC50 (second compound 0.000949 µM) was over 8.50, the pIC50 (second compound 0.003 µM) was over 8.50 and the pIC50 (second compound 0.00949 µM) was over 8.50. For the same compound, the pIC50 (second compound 0.03 µM) was over 8.50, the pIC50 (second compound 0.0949 µM) was over 8.50 and the pIC50 (second compound 0.3 µM) was over 8.50. For the same compound, the viability, T/C [37] was 33.7%, the viability, T/C [38] was 29.1% and the viability, T/C [1] was 11.7%. It also gave a viability, T/C [2] of 15.2%, a viability, T/C [3] of 6.3% and a viability, T/C [4] of 2.8%. The viability, T/C [39] was 11.8%, the viability, T/C [40] was 8.85% and the viability, T/C [7] was 7.64%. It also gave a viability, T/C [8] of 7.02%, a viability, T/C [9] of 4.31% and a viability, T/C [10] of 2.26%. It also gave a viability, T/C [41] of 11.9%, a viability, T/C [42] of 9.16% and a viability, T/C [13] of 7.57%. The viability, T/C [14] was 6.25%, the viability, T/C [15] was 3.49% and the viability, T/C [16] was 2.55%. The viability, T/C [43] was 10.5%, the viability, T/C [44] was 8.81% and the viability, T/C [19] was 12.8%. The viability, T/C [20] was 7.27%, the viability, T/C [21] was 2.71% and the viability, T/C [22] was 2.49%. For the same compound, the viability, T/C [45] was 11.1%, the viability, T/C [46] was 9.53% and the viability, T/C [25] was 8.98%. The viability, T/C [26] was 6.47%, the viability, T/C [27] was 2.33% and the viability, T/C [28] was 1.78%. The viability, T/C [47] was 12.8%, the viability, T/C [48] was 11% and the viability, T/C [31] was 8.71%. For the same compound, the viability, T/C [32] was 5.63%, the viability, T/C [33] was 2.69% and the viability, T/C [34] was 2.11%.
